We go through 1 compound from patent US20180110781A1, “SYSTEM AND METHOD FOR DIAGNOSIS AND TREATMENT OF NEUROPSYCHIATRIC DISORDERS” (Research Foundation For Mental Hygiene, Inc., priority 2016, published 2018).

The structures appear in SMILES notation. “Also recorded” adds a separate entry of the source. Counter-ions that a name gives are not always drawn.

Data set [1] has as its system outpatients with schizophrenia or schizoaffective disorder. The data set can be described thus: Six-week trial of Kuvan: MATRICS Consensus Cognitive Battery (MCCB). The format is in vivo, human. How it is done: (§1) A six-week, rater-blind, multivitamin-controlled trial of Kuvan® was performed at the Lieber Schizophrenia Research Clinic, New York State Psychiatric Institute. Clinically stable outpatients with schizophrenia or schizoaffective disorder were randomly assigned to receive Kuvan® (20mg/kg/day) or a single, daily multivitamin tablet, added to their medication regimen. Subjects were also genotyped for the GCH1 gene promotor polymorphism (r510137071). The primary clinical efficacy outcome was change in total Positive and Negative Symptom Scale (PANSS) scores, measured at baseline, then weeks 2, 4 and 6. Improvements in function was measured by the UPSA-B, at baseline, then week 6. The primary cognitive outcome was measured by the MCCB, measured at baseline and week 6. A priori defined secondary outcomes were PANSS factor scores and MCCB domain scores. Data were analyzed using a mixed effects repeated measures model (Stata v14.1, College Station, TX). Models included fixed effects of treatment, time (week) and the treatment by time interaction, with random subject and time effects. Genotype (GCH1 A allele versus GG genotype) was also included as a fixed effect in additional models. […] All hypothesis tests were two-sided, with significance determined at unadjusted p<0.05.

For data set [2] the test system is unchanged. The data set is described as follows: Six-week rater-blind multivitamin-controlled trial of Kuvan: Positive and Negative Symptom Scale (PANSS). The format is in vivo, human. The protocol:
as §1

Data set [3] has the same test system. The data set can be described thus: Six-week trial of Kuvan: UCSD Performance Based Skills Assessment-Brief (UPSA-B). The class given is in vivo, human. The protocol:
as §1

For data set [4] the test system is unchanged. Also noted: species or system human. Particulars: in vivo. The protocol:
A six-week, rater-blind, multivitamin-controlled trial of Kuvan® was performed at the Lieber Schizophrenia Research Clinic, New York State Psychiatric Institute. Clinically stable outpatients with schizophrenia or schizoaffective disorder were randomly assigned to receive Kuvan® (20mg/kg/day) or a single, daily multivitamin tablet, added to their medication regimen. Subjects were also genotyped for the GCH1 gene promotor polymorphism (r510137071). The primary clinical efficacy outcome was change in total Positive and Negative Symptom Scale (PANSS) scores, measured at baseline, then weeks 2, 4 and 6. Improvements in function was measured by the UPSA-B, at baseline, then week 6. The primary cognitive outcome was measured by the MCCB, measured at baseline and week 6. A priori defined secondary outcomes were PANSS factor scores and MCCB domain scores.
No AEs were considered by the investigators to be serious. 75% (9/12) of subjects randomized to the multivitamin group and 61.5% (8/13) of those treated with Kuvan® experienced an AE, which was not statistically different (p=0.47). There was no statistically significant difference in the average number of AEs experienced by each subject (Kuvan=2.44±1.13; Multivitamin=3.0±2.07, p=0.49), or the degree to which each AEs was considered related to the study medication (Kuvan 18/24 total events; multivitamin 13/22 total events, p=0.35). Additionally, two subjects prematurely discontinued from the study based upon the predefined stopping rules, both of whom had been randomized to the multivitamin group.

Setting [5] is: did not reach two-tailed statistical significance.

As for `C[C@H](O)[C@H](O)[C@H]1CNc2nc(N)[nH]c(=O)c2N1` [Kuvan®, saproterin dihydrochloride], in data set [1] (GCH1 A allele patients, study end (week 6), Kuvan n=5 p=0.044, multivitamin n=8 p=0.36 vs baseline), the “MCCB composite score, final mean” value is reported as 34.4±11.89. In data set [1] (GCH1 A allele patients, Kuvan n=5, multivitamin n=8), the “MCCB composite score, baseline mean” value turned out to be 28.4±8.62. Besides, in data set [1] (GCH1 A allele versus GG, p=0.002, dihydrochloride), the “interaction of treatment, time and genotype on the MCCB Composite Score” value is listed as “significant effect of GCH1 genotype by treatment group; also recorded: significant interaction”. In addition, in data set [1] (baseline to study end, Kuvan 4/5, multivitamin 2/8), the “A allele carriers exhibiting improvement on the MCCB composite T score” value was found to be 80%. Also, the “MCCB Social Cognition domain, Kuvan group versus multivitamin group” value in data set [1] (baseline to week 6, p=0.085) is reported as “trend toward significance”. In data set [1] (setting [5]), the “MCCB social cognition domain score, change from baseline” value is “increased from baseline” and the “MCCB working memory domain score, change from baseline” value is reported as “increased from baseline”. Also, the “MCCB Working Memory domain, Kuvan group versus multivitamin group” value in data set [1] (n=13 vs n=12 completers, baseline to week 6, p=0.05) is recorded as “performance improvement”. In addition, the “cognitive change from baseline (MCCB composite) in GCH1 A allele patients” value in data set [1] (paired t-test p=0.044) is listed as “significant cognitive improvement”. Further, the “MCCB composite score, treatment*time interaction” value in data set [1] (primary cognitive outcome, one-tailed trend p=0.0735) is “did not show a significant treatment*time interaction”. Also, the “change in total PANSS score, treatment effect” value in data set [2] (Kuvan 20mg/kg/day vs daily multivitamin, baseline to week 6, treatment*time p>0.05) is given as “no treatment effect”. The “PANSS factor scores (Positive, Negative and General Psychopathology), treatment*time effect” value in data set [2] (Kuvan vs multivitamin, six weeks) is on record as “no significant treatment*time effect”. Moreover, the “genotype effect (treatment*time*genotype) on total PANSS score” value in data set [2] (p<0.1 for each visit compared to baseline) was “A genotype effect was not observed”. Also, the “UPSA-B Financial subscale, Kuvan group versus multivitamin group” value in data set [3] (baseline to week 6, p<0.001) was “performance improvement”. Besides, the “treatment*time*genotype interaction on total UPSA-B score” value in data set [3] (p=0.096) is reported as “trend towards significance”. For the same compound, the “unadjusted UPSA-B Financial Subscale scores, change between baseline and study end” value in data set [3] (paired sample t-tests, Kuvan p=0.039, multivitamin p=0.025) was “significant increase”. The “UPSA-B score, treatment*time interaction” value in data set [3] (primary functional outcome) is “did not show a significant treatment*time interaction”. Also, in data set [4] (human, 6 weeks), the “AEs considered related to the study medication” value is listed as 18/24, the “average number of AEs experienced by each subject” value is 2.44±1.13 and the “subjects who experienced an adverse event” value is 61.5%. Also, the “severity of adverse events” value in data set [4] is listed as “generally mild”.
